# Experiments:
# A375 cells = experiment: Invasion assay (Matrigel), A375; assay type: cell-based, human; conditions: 1 μM, 24 h, with greater potency than SCH772984
# Procedure: Invasion assays. Cells were grown in medium containing 10% FBS in 24-well plates. The following day the cells were scratched with a sterile toothpick, washed with PBS, and overlayed with 90% Matrigel (cat. no. 354230, Corning) (200 μl/well) containing vehicle, BT2 or SCH772984 at 1 μM. The cells were immediately photographed under a 10× objective using an Olympus CKX41 microscope, incubated at 37° C. for 1 h, and medium (800 μl/well) containing 10% FBS with vehicle, BT2 or SCH772984 at 1 μM was added. After 24 or 48 h, the cells were again photographed under a 10× objective using the same microscope. To assess the effect of BT2 on melanoma cell migration, A375 and MeWo cells were incubated with 1 μM of BT2 or SCH772984, and A375 and MeWo migration into the denuded zone was quantified after 24 or 48 h, respectively.
# p-ERK = experiment: Immunohistochemistry of MDA-MB-435 tumors, p-ERK; assay type: in vivo, mouse; conditions: SCID mice, 20 mg/kg i.t.
# Text: Immunohistochemical staining and analyses. Rabbit monoclonal anti-CD3 (cat. no. ab16669; mouse, rat and human reactive), rabbit monoclonal anti-PD-1 (cat. no. ab214421), rabbit monoclonal anti-CD68 (cat. no. ab125212) antibodies were obtained from Abcam, rabbit monoclonal anti-phospho-ERK (Thr^202/Tyr^204) (cat. no. CST4370), rabbit monoclonal total ERK (cat. no. CST4695), antibodies were obtained from Cell Signaling Technology. Rabbit polyclonal anti-PD-L1 (cat. no. PA5-20343) antibody was obtained from ThermoFisher.
# Formalin fixed, paraffin embedded sections were prepared from tumors. Heat-induced epitope retrieval was applied to all deparaffinized sections (4 μm sections on Superfrost slides) with citrate buffer, pH 6.0 for 5 min at 110° C. Sections were blocked with Dual Endogenous Enzyme Block (DAKO, S2003) for 10 min and then with 2% skim milk for 20 min. Slides were incubated with primary antibody for 60 min at room temperature or overnight at 4° C. and then for 10 min with probe of MACH3 Rabbit AP-Polymer Detection solution (Biocare Medical, M3R533 G, H, L). […] Integrated optical density (IOD) or area of positive staining (red chromagen) was assessed using Image-Pro Plus software (Cybernetics, Bethesda, MD, USA). Positive staining was the average of quantitation in 4-8 fields of view under 20× or 40× objectives.
# p38 = experiment: Western blotting time course for p38 phosphorylation, Jurkat T cells; assay type: cell-based, human; conditions: Western blot time course
# Procedure: (§1) Western blotting. Cells were treated with compounds and times indicated and total cell lysates were prepared in RIPA buffer. Lysates (10 μg) were resolved by SDS-PAGE and transferred to Immobilon-P polyvinylidene difluoride (PVDF) membranes (Millipore, USA).
# (§2) Membranes were blocked with 5% skim milk and incubated with rabbit monoclonal anti-c-Jun (Abcam, cat. no. ab32137; mouse, rat and human reactive) antibody, rabbit monoclonal anti-PD-1 (Abcam, cat. no. ab214421) antibody, mouse monoclonal β-actin antibody (Sigma-Aldrich, cat. no. A5316), anti-phospho-SAPK/JNK (Thr^183/Tyr^185) (98F2) (CST, cat. no. 4671) antibody, anti-phospho-p44/42 MAPK (ERK1/2) (Thr^202/Tyr^204) (D13.14.4E) (CST, cat. no. 4370) antibody, anti-phospho-p38 MAPK (Thr^180/Tyr^182) (D3F9) (CST, cat. no. 4511) antibody, anti-SAPK/JNK antibody (CST, cat. no. 9252), anti-p44/42 MAPK (ERK1/2) (137F5) antibody (CST, cat. no. 4695), anti-p38 MAPK antibody (CST, cat. no. 9212), anti-DUSP8 antibody (Abcam, cat. no. ab198175) or anti-c-MAF (BLR045F) antibody (Abcam, cat. no. ab243901). […] Chemiluminescence was detected using the Western Lightning Chemiluminescence system (Thermo Scientific, USA) and ImageQuant™ LAS 4000 biomolecular imager (GE Healthcare Life Sciences, USA). Band intensity in images generated with the LAS 4000 was quantified using NIH Image J. […]
# JUN = experiment: Western blotting for JUN, MeWo cells; assay type: cell-based, human; conditions: MeWo cells (BRAF WT), 24 h, dose-dependent
# Procedure: as §1, §2
smiles,measurement,setting,value
"CCOC(=O)Nc1ccc2c(c1)C(=O)N(CC)c1ccccc1O2 [BT2, (10-ethyl-11-oxo-10,11-dihydro-dibenzo[b,f][1,4]oxazepin-2-yl)-carbamic acid ethyl ester]",invasion into the denuded zone of Matrigel,A375 cells,suppressed
same,ERK phosphorylation in the tumors (IHC),p-ERK,suppression of ERK phosphorylation
same,levels of p38 phosphorylation,p38,no effect
same,JUN expression (Western blot),JUN,increased
